Assay results published in patent publication US10183949B2, “Pyrimidinone derivative having autotaxin-inhibitory activity” (The University of Tokyo, priority 2014, dated 2019).

Each compound was assayed against T1, Human autotaxin enzyme (Homo sapiens, UniProt Q13822) (assay: Evaluation of autotaxin inhibitor, 18:0 Lyso PC / choline assay (Test Example 2)). Conditions: human autotaxin enzyme, 18:0 Lyso PC substrate, choline assay, room temperature 2 hours; read-out: Inhibitor activity (IC50).
T1 construct: purchased R&D System
Assay type: biochemical
Method in brief: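 Human autotaxin in 100 mM Tris-HCl pH 7.5, 150 mM NaCl, 5 mM MgCl2, 0.05% Triton X-100 reacted with 18:0 Lyso PC (200 μM stock) and test compound 2 h at room temperature. Released choline quantified via choline oxidase/peroxidase resorufin fluorescence (ex 531/em 598 nm, 20 min); inhibition vs no-compound and no-enzyme controls, concentration-response curve.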

Row | SMILES | IC50
1 | COC(=O)Nc1cc(Cl)ccc1-c1cc(=O)n(CC(=O)NC(C)(C)CO)c(C)n1 [Compound I-0412] | < 10 nM
2 | O=C(Cn1c(CCCC(F)(F)F)nc(-c2ccc(C(F)(F)F)cc2)cc1=O)NCc1ccc(O)nc1 [Compound I-0340] | 100 to 1000 nM
3 | CCCCCc1nc(-c2ccc(Cl)cc2)cc(=O)n1CC(=O)NCCCO [Compound I-0030] | 100 to 1000 nM
4 | O=C(NCc1cnccn1)c1cccc(Cn2c(CCCC(F)(F)F)nc(-c3ccc(Cl)cc3)cc2=O)c1 [Compound I-0169] | 100 to 1000 nM
5 | COC(=O)Nc1cc(Cl)ccc1-c1cc(=O)n(CC(=O)NC2(c3nc(C)no3)CC2)c(C)n1 [Compound I-0467] | 10 to 100 nM
6 | COC(=O)Nc1cc(Cl)ccc1-c1cc(=O)n(CC(=O)N2CC(F)C2)c(C)n1 [Compound I-0395] | 100 to 1000 nM
7 | CC(C)(O)CN1CCN(C(=O)Cn2c(CCCC(F)(F)F)nc(-c3ccc(C(F)(F)F)cc3)cc2=O)CC1 [Compound I-0357] | 100 to 1000 nM
8 | COC(=O)Nc1cc(Cl)ccc1-c1cc(=O)n(CC(=O)NCC2CNC(=O)O2)c(C)n1 (centres unmarked) [Compound I-0442] | 10 to 100 nM
9 | CC(=O)Nc1cc(Cl)ccc1-c1cc(=O)n(Cc2cccc(C(=O)O)c2)c(C)n1 [Compound I-0267] | < 10 nM
10 | CCNC(=O)N1CCC(NC(=O)c2cccc(Cn3cnc(-c4ccc(Cl)cc4NC(=O)C(C)(C)C)cc3=O)c2)CC1 [Compound I-0500] | 10 to 100 nM
11 | CS(C)(=O)=NC(=O)Cn1c(CCCC(F)(F)F)nc(-c2ccc(C(F)(F)F)cc2)cc1=O [Compound I-0325] | 10 to 100 nM
12 | COC(=O)Nc1cc(Cl)ccc1-c1cc(=O)n(CC(=O)NCC2(CO)COC2)c(C)n1 [Compound I-0286] | 10 to 100 nM

Further lines, results first:

Row | IC50 | SMILES
13 | 10 to 100 nM | O=C(Cn1c(CCCC(F)(F)F)nc(-c2ccc(C(F)(F)F)cc2)cc1=O)NC1(c2cccnc2)CC1 [Compound I-0347]
14 | 10 to 100 nM | Cc1nc(-c2ccc(Cl)cc2NC(=O)C2CC2)cc(=O)n1CC(=O)NC1COC1 [Compound I-0404]
15 | ≥ 1000 nM | CCCCCc1nc(-c2ccc(Cl)cc2)cc(=O)n1CC(=O)N1CC2(COC2)C1 [Compound I-0091]
16 | 10 to 100 nM | Cc1nc(-c2ccc(Cl)cc2NC(=O)C(C)(C)C)cc(=O)n1CC(=O)N1CCC(O)CC1 [Compound I-0301]
17 | 100 to 1000 nM | CCCCCc1nc(-c2ccc(Cl)cc2)cc(=O)n1CC(=O)NC1CCCNC1=O (centres unmarked) [Compound I-0082]
18 | 10 to 100 nM | O=C(NCCS(=O)(=O)O)c1cccc(Cn2c(CCCC(F)(F)F)nc(-c3ccc(Cl)cc3)cc2=O)c1 [Compound I-0154]
19 | 100 to 1000 nM | CCCCCNc1nc(-c2ccc(C(F)(F)F)cc2)cc(=O)n1Cc1cccc(C(=O)NCC(N)=O)c1 [Compound I-0013]
20 | 10 to 100 nM | CC(C)(O)C1CCN(C(=O)Cn2c(CCCC(F)(F)F)nc(-c3ccc(C(F)(F)F)cc3)cc2=O)CC1 [Compound I-0352]
